pIC50: −log10 of the molar value. Residues, ends and D or L forms follow the SMILES beside them. *: point of attachment. MeOSuc = COC(=O)CCC(=O)*; CH2Cl = ClC*
What was measured:
Neutrophil elastase = molecular target: T1, Neutrophil elastase (Homo sapiens, UniProt P08246); assay: Inhibition of human neutrophil elastase using N-MeOSuc-Ala-Ala-Pro-Val-p-nitroanilide as substrate incubated for 30 mins prior to substrate addition measured for 60 mins by chromogenic 96 well microplate assay; settings: for pIC50: read-out: IC50
T1 sequence (P08246 whole entry): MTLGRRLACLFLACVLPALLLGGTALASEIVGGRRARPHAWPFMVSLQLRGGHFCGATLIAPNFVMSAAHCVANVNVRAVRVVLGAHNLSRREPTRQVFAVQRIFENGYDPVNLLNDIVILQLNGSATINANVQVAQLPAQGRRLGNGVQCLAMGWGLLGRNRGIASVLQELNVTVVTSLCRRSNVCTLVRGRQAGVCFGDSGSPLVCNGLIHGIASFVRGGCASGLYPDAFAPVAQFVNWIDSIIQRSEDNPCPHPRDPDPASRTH

[1] = Metabolic stability in Sprague-Dawley rat pooled liver microsomes assessed as compound remaining after 2 days by HPLC analysis in absence of NADPH generating system; assay type: ADME; settings: read-out: Stability
Myeloblastin = molecular target: T2, Myeloblastin (Homo sapiens, UniProt P24158); assay: Inhibition of proteinase 3 in human neutrophil using N-MeOSuc-Ala-Ala-Pro-Val-p-nitroanilide as chromogenic substrate measured for 60 mins by chromogenic assay
T2 sequence (P24158 whole entry): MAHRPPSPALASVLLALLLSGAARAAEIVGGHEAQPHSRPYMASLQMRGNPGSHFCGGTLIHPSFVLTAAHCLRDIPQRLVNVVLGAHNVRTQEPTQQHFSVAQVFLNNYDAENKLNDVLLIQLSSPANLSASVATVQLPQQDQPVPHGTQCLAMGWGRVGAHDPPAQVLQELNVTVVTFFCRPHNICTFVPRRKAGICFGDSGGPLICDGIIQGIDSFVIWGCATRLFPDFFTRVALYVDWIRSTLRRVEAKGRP

Pancreatic elastase = Pancreatic elastase (Sus scrofa, UniProt P08419+P00772); assay: Inhibition of porcine pancreatic elastase using MeO-Suc-Ala-Ala-Pro-Val-AMC as substrate incubated for 30 mins prior to substrate addition measured for 30 mins by incubation method based fluorescence analysis; assay type: protein assay
[2] = Chemical stability of the compound in phosphate buffer at pH 7.4 assessed as compound remaining at 100 uM after 2 days by HPLC analysis; assay type: physicochemical; settings: read-out: Stability
[3] = Metabolic stability in Sprague-Dawley rat pooled liver microsomes assessed as compound remaining after 2 days by HPLC analysis in presence of NADPH generating system; assay type: ADME; settings: read-out: Stability
HEK-293T = assay: Cytotoxicity against human HEK293T cells after 24 hrs; assay type: cell-based
Cathepsin G = molecular target: T3, Cathepsin G (Homo sapiens, UniProt P08311); assay: Inhibition of cathepsin G in human neutrophil using Suc-Ala-Ala-Pro-Phe-p-nitroanilide as chromogenic substrate incubated for 30 mins prior to substrate addition measured for 30 mins by progress curve method
T3 sequence (P08311 whole entry): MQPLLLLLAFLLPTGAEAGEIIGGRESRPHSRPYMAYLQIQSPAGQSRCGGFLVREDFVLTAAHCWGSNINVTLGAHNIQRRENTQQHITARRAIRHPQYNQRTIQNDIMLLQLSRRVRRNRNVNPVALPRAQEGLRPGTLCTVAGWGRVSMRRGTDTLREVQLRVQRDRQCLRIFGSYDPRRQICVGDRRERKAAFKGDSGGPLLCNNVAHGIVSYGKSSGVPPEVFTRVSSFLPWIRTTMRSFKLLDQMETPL

[4] = Cytotoxicity against mouse NIH/3T3 cells after 24 hrs; assay type: cell-based; settings: NIH3T3, 24 h
[5] = molecular target: T4, Neutrophil elastase (Homo sapiens) (UniProt P08246); assay: Competitive inhibition of human neutrophil elastase assessed as product formation using N-MeOSuc-Ala-Ala-Pro-Val-p-nitroanilide as substrate measured for 120 mins by chromogenic 96 well microplate assay
T4 sequence (whole entry): T1 sequence (P08246 whole entry)

[6] = Metabolic stability in human plasma assessed as compound remaining after 2 days by HPLC analysis; assay type: ADME, cell-free; settings: read-out: Stability
[7] = Chemical stability of the compound in phosphate buffer at pH 7.4 assessed as compound remaining at 50 uM after 2 days by HPLC analysis; assay type: physicochemical; settings: read-out: Stability

| SMILES | IC50 (Neutrophil elastase) | pIC50 (Neutrophil elastase) | further results |
| --- | --- | --- | --- |
| O=C(O)CSc1nnc(CSc2nc3ccccc3s2)n1-c1ccccc1 |  | < 4.00 |  |
| COC(=O)CCC(=O)N[C@@H](C)C(=O)N[C@@H](C)C(=O)N1CCC[C@H]1C(=O)N[C@@H](C)C(=O)CCl (MeOSuc-AAPA-CH2Cl) |  | 4.69 |  |
| COc1ccc(-n2c(COc3ccc4ccccc4c3)nnc2SCC(=O)O)cc1 |  | < 4.00 |  |
| O=C(Cc1cn2ccsc2n1)N/N=C/c1cn(-c2ccccc2)nc1-c1cccs1 | ND(Insoluble) |  |  |
| O=C(CSc1nc2ccccc2n1Cc1ccccc1F)NCc1ccc2c(c1)OCO2 | ND(Insoluble) |  |  |
| Nc1c(C(=O)NCc2cccs2)c2nc3ccccc3nc2n1/N=C/c1ccccn1 |  | 4.75 |  |
| NC(=O)CSc1nnc2c3c4c(sc3nc(SCc3ccccc3)n12)CCCC4 | ND(Insoluble) |  |  |
| CCOC(=O)C(CSCc1ccccc1)NC(=O)c1coc(-c2ccc(N)cc2)n1 (stereo unspecified) |  | 4.49 |  |
| C=CCn1c(Cc2ccccc2)nnc1SCC(=O)Nc1nc(-c2ccccc2)cs1 | ND(Insoluble) |  |  |
| O=C(CSc1nnc2scc(-c3ccc(Cl)cc3)n12)NCc1cccnc1 |  | < 4.00 |  |
| O=C(Oc1coc(CSc2nnc(NC(=O)C3CC3)s2)cc1=O)c1cccc(F)c1 |  | 4.74 | pIC50 (Myeloblastin): < 3.87; IC50 (Pancreatic elastase): > 134 µM; pIC50 (HEK-293T): < 3.87; pIC50 (Cathepsin G): < 3.87; pIC50 [4]: < 3.87; inhibition [5]: Dose-dependent effect; remaining at 48 h, 50 µM [7]: > 80% |
| c1ccc(-c2noc(CSc3nnc(Cc4cccs4)n3-c3ccccc3)n2)cc1 | ND(Insoluble) |  |  |
| Oc1ccc2c(c1)Oc1ncn3nc(CO/N=C/c4ccccc4)nc3c1C2c1ccccc1 (stereo unspecified) |  | < 4.00 |  |
| Cc1ccc(-n2c(COc3ccc4ccccc4c3)nnc2SCC(=O)O)cc1 |  | < 4.00 |  |
| O=C(CSc1nnc(C2CC2)n1Cc1ccccc1)NCc1ccccc1 |  | < 4.00 |  |
| C=CCn1c(=O)c2ccccc2n2c(SCC(=O)NCc3cccs3)nnc12 | ND(Insoluble) |  |  |
| CCC(N)c1nc(C(=O)NC(Cc2ccccc2)C(=O)OCc2ccccc2)co1 (stereo unspecified) |  | < 4.00 |  |
| COc1ccc(-n2c(COc3ccc4ccccc4c3)nnc2SCC(N)=O)cc1 |  | < 4.00 |  |
| NC(=O)CSc1nnc2c3c4c(sc3nc(SCc3ccccc3)n12)CCC4 |  | < 4.00 |  |

More lines, main results first:

| IC50 (Neutrophil elastase) | pIC50 (Neutrophil elastase) | SMILES | further results |
| --- | --- | --- | --- |
| ND(Insoluble) |  | CCC(Sc1nc(-c2ccccc2)cc(-c2ccccc2)n1)C(=O)Nc1nnc(C)s1 (stereo unspecified) |  |
|  | < 4.00 | Cc1occc1-c1nnc(SCC(=O)NCCc2ccccc2)n1C(C)c1ccccc1 (stereo unspecified) |  |
|  | < 4.00 | COc1ccc(CCNC(=O)C(Sc2ccccn2)c2ccccc2)cc1OC (stereo unspecified) |  |
|  | < 4.00 | COC(=O)C(CSCc1ccccc1)NC(=O)CSc1nc2ccccc2[nH]1 (stereo unspecified) |  |
| ND(Insoluble) |  | COc1ccc(C(=O)CSc2nnc(COc3ccccc3)n2Cc2ccco2)cc1 |  |
|  | 4.57 | Nc1nnc(SC(C(=O)Nc2cc(Cl)cc(Cl)c2)c2ccccc2)[nH]1 (stereo unspecified) | remaining at 48 h [1]: > 80%; pIC50 (Myeloblastin): < 3.86; IC50 (Pancreatic elastase): > 139 µM; remaining at 48 h, 100 µM [2]: > 80%; remaining at 48 h [3]: > 80%; pIC50 (HEK-293T): < 3.86; pIC50 (Cathepsin G): < 3.86; pIC50 [4]: < 3.86; inhibition [5]: Dose-dependent effect; remaining at 48 h [6]: > 80% |
|  | < 4.00 | O=C(NCc1ccccc1)c1ccc2nc(-c3ccccn3)c(-c3ccccn3)nc2c1 |  |
|  | < 4.00 | O=C(CSc1nnc(Cc2ccccc2)n1Cc1ccccc1)NCc1ccco1 |  |
| ND(Insoluble) |  | COc1ccc(C(=O)CSc2nnc(COc3ccccc3)n2Cc2ccccc2)cc1 |  |
| ND(Insoluble) |  | Cc1sc(NC(=O)CSc2nnc(Cc3ccccc3)n2C)nc1-c1ccccc1 |  |

From ChEMBL document CHEMBL3217450, “Structure based virtual screening for discovery of novel human neutrophil elastase inhibitors” (Medchemcomm, 2012)
